Here are results for two molecules from patent US20210024567A1, “MODIFIED CYCLIC DINUCLEOTIDE COMPOUNDS” (BOEHRINGER INGELHEIM INTERNATIONAL GMBH, priority 2018, published 2021).

In test [1] the target is Human STING (hSTING, residues 155-341, wild-type sequence) (Homo sapiens, UniProt Q86WV6, H232R). The test is described as follows: hSTING binding by differential scanning fluorimetry (DSF). To be noted: 100 μM test compound, 3 μM target protein, at least two Tm measurements averaged. How it is done:
3) 2 μl of this protein-dye-mixture (25×SYPRO Orange and 15 μM Protein) was added to 8 μl compound solution. Final volume was 10 μL. 4) Certain well positions were used as negative control. 5) The plates were prepared for duplicate measurement and centrifuged for 2 min at 1000 g. 6) In the measurement, 160 cycles of 0.5° C. were used (temperature ramp 15 s/cycle, 15° C. to 95° C.). Data analysis: The dissociation curves were processed in Bio-Rad CFX Manager. Peak type was set to “negative. At least two Tm measurements were averaged.

Test [2] has as its target T1, human STING protein in THP1-Blue ISG cells (Homo sapiens, UniProt Q86WV6, G230A/H232R/R293Q/R71H).
T1 construct: endogenous STING levels form the parental, unmodified THP1-Blue ISG cell lines; endogenous in cells; host or cells: THP1-Blue ISG cells
The experiment in a line: In vitro cytokine induction, THP1-Blue ISG reporter cell assay (IRF-inducible SEAP). In kind it is cell-based. To be noted: 24 hours incubation, SEAP OD at 620 nm. The source says: Activation of the STING protein expressed in THP1 cells results in an increase of interferon production. By the stable integration of an interferon regulatory factor (IRF)-inducible SEAP (secreted embryonic alkaline phosphatase) reporter construct the functional interferon signaling pathway can be monitored. Using Invivogen's QUANTI-Blue™ colorimetric enzyme assay and a suitable optical density (OD) reader the activity of SEAP can be detected and quantified. This technique could be used to characterize pharmacological modification of the STING protein.
Measurements of SEAP activity were performed in THP1-Blue ISG cells stably expressing the human STING protein and the IRF-inducible SEAP reporter construct. Cells were cultivated for expansion in RPMI1640 medium with 10% fetal calf serum, 50 μg/ml Penicillin-Streptomycin, 100 μg/ml Zeocin, and 100 μg/ml Normocin in a 37°, 95% humidity and 5% CO2 incubator. Assay-ready cells were stored as frozen stocks.
In preparation for the assay, the cells were thawed in Zeocin-/Normocin-free medium and were distributed into the assay plates with a density of 15000 cells/15 μL per well. […]
At the day of the assay, 75 μl per well of Quanti-Blue reagent was added to all wells of the plate and the plate was incubated another 30 minutes at 37° C. The OD at 620 nm was measured on the EnVision reader (PerkinElmer). […]

A further test concerns the target T2, hSTING WT (Homo sapiens, UniProt Q86WV6, H232R).
T2 construct: expressed in transfected cells; host or cells: THP1-Blue ISG hSTING KO clone, retroviral MSCV-ires-GFP-Blasti
The test is described as follows: THP1-Blue ISG hSTING KO reporter cells re-expressing hSTING WT. To be noted: WT variant cell line. In kind it is cell-based. From the text:
(§1) Several single nucleotide polymorphisms have been identified in the human STING gene that may affect the response to cyclic dinucleotides. To determine the activity of compounds of the invention, THP1-Blue ISG reporter cell lines expressing the different human STING variants have been generated. To do so, the endogenous human STING was first deleted using the CRISPR/CAS9 system: THP1-Blue ISG cells were electroporated with ALL-IN-ONE CRISPR plasmids targeting the STING gene (purchased from Sigma encoding the gRNA and GFP as a reporter gene for successful transduction). GFP positive cells then were sorted 24 h post transfection and expanded. Cells were then dispersed in semisolid methocel medium to allow single cell clone isolations. Clones were then screened for cGAMP responsiveness using the Quanti-blue reporter assay. Non-responsive clones were subsequently analysed for STING loss by western blotting and sequencing of the STING locus.
(§2) For the overexpression of the human STING variants, a confirmed THP1-Blue ISG hSTING KO clone was transduced with individual retroviral plasmids (MSCV-ires-GFP-Blasti) encoding the allelic variants of hSTING (WT, HAQ, R232H, AQ and R293Q), respectively. Transduced cells were sorted for different levels of GFP fluorescence and STING allele expression was analysed by western blot.

The target in another test is T3, hSTING HAQ (Homo sapiens, UniProt Q86WV6, G230A/H232R/R293Q/R71H).
T3 construct: expressed in transfected cells; host or cells: THP1-Blue ISG hSTING KO clone, retroviral MSCV-ires-GFP-Blasti
The experiment in a line: THP1-Blue ISG hSTING KO reporter cells re-expressing hSTING HAQ. It counts as cell-based. To be noted: HAQ variant cell line.
From the text: as §1, §2

A further test has as its target T4, hSTING R232H (Homo sapiens, UniProt Q86WV6).
T4 construct: expressed in transfected cells; host or cells: THP1-Blue ISG hSTING KO clone, retroviral MSCV-ires-GFP-Blasti
The experiment in a line: THP1-Blue ISG hSTING KO reporter cells re-expressing hSTING R232H. In kind it is cell-based. As to conditions: R232H variant cell line.
From the text: as §1, §2

For a further test, the target named is T5, hSTING AQ (Homo sapiens, UniProt Q86WV6, G230A/H232R/R293Q).
T5 construct: expressed in transfected cells; host or cells: THP1-Blue ISG hSTING KO clone, retroviral MSCV-ires-GFP-Blasti
The experiment in a line: THP1-Blue ISG hSTING KO reporter cells re-expressing hSTING AQ. In kind it is cell-based. To be noted: AQ variant cell line.
From the text: as §1, §2

The next test concerns the target T6, hSTING R293Q (Homo sapiens, UniProt Q86WV6, H232R/R293Q).
T6 construct: expressed in transfected cells; host or cells: THP1-Blue ISG hSTING KO clone, retroviral MSCV-ires-GFP-Blasti
The experiment in a line: THP1-Blue ISG hSTING KO reporter cells re-expressing hSTING R293Q. In kind it is cell-based. As to conditions: R293Q variant cell line.
From the text: as §1, §2

Chain of Human STING (hSTING, residues 155-341, wild-type sequence) (Q86WV6 155-341 H232R limits assumed): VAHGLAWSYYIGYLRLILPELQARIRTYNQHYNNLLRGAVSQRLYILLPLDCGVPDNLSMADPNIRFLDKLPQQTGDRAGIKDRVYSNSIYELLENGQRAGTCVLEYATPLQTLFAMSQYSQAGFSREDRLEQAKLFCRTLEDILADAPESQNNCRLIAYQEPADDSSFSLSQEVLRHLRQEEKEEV
T1 sequence (Q86WV6 whole entry R71H/G230A/H232R/R293Q): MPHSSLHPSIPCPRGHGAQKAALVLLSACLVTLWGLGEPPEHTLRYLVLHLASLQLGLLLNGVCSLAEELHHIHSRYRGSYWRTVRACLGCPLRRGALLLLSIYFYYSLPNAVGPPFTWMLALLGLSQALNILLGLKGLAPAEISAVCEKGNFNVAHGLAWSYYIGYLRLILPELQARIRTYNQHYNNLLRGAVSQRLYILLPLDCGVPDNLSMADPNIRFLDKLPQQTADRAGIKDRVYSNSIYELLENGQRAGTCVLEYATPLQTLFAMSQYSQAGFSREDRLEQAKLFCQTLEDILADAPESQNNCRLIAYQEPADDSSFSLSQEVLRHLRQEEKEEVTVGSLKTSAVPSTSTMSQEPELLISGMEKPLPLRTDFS
T3 sequence (Q86WV6 whole entry R71H/G230A/H232R/R293Q): as above
T2 sequence (Q86WV6 whole entry H232R): as the sequence (Q86WV6 whole entry R71H/G230A/H232R/R293Q) above, with H71R, A230G, Q293R counted along it
T5 sequence (Q86WV6 whole entry G230A/H232R/R293Q): as the sequence (Q86WV6 whole entry R71H/G230A/H232R/R293Q) above, with H71R counted along it
T4 sequence (Q86WV6 whole entry, stated change not applied): as the sequence (Q86WV6 whole entry R71H/G230A/H232R/R293Q) above, with H71R, A230G, R232H, Q293R counted along it
T6 sequence (Q86WV6 whole entry H232R/R293Q): as the sequence (Q86WV6 whole entry R71H/G230A/H232R/R293Q) above, with H71R, A230G counted along it

Broadly, the EC50 is the midpoint of the concentration-response curve. Higher therefore signals a need for much substance. For `Nc1ncnc2c1ncn2[C@@H]1O[C@]23CO[C@@H]1[C@@H]2OP(=O)(S)OC[C@H]1O[C@@H](n2cnc4cncnc42)[C@H](F)[C@@H]1OP(=O)(S)OC3` (single isomer, unassigned) [Example 1.1, Cyclic (2′-F-2′-deoxynebularine-(3′→5′)-phosphorothioate-LNA-adenosine-(3′→5′)-phosphorothioate)], the ΔTm at 100 µM in test [1] (read-out: hSTING Tm shift) was found to be 28.8 °C. In addition, the EC50 in test [2] was 250 nM; at hSTING WT it was no more than 1000 nM; on hSTING HAQ, no more than 1000 nM; on hSTING R232H, no more than 1000 nM; on hSTING AQ, no more than 1000 nM; on hSTING R293Q, no more than 1000 nM.

As for `Nc1ncnc2c1ncn2[C@@H]1O[C@]23CO[C@@H]1[C@@H]2OP(=O)(S)OC[C@H]1O[C@@H](n2cnc4cncnc42)[C@H](F)[C@@H]1OP(=O)(S)OC3` (single isomer, unassigned) [Example 1.2, Cyclic (2′-F-2′-deoxynebularine-(3′→5′)-phosphorothioate-LNA-adenosine-(3′→5′)-phosphorothioate)], the “hSTING Tm shift” value in test [1] is 19.8 °C. In test [2], the midpoint of the response, the EC50, lay at 160 nM.
